Source: publication PMC12722964, “Immunogenicity risk assessment of peptide-related impurities identified in generic teriparatide products” (Frontiers in Immunology, 2025)
Blank lines part the entries; values can stand above or below the substance they belong to. Ends that are not written are not given here.

Tests used:
[1] = Overall risk based on in silico and in vitro results; conditions: EpiMatrix and JanusMatrix scores compared with naïve donor T-cell assay
Source text: Table 4 Overall risk based on in silico and in vitro results. | column: Overall risk

HLA-DRB1*1101 = HLA-DRB1*1101 (Homo sapiens, UniProt P01903+P01911, A100R/A169T/A87E/I96F/K41T/L162R/M171V/P40S/Q125H/Q178H/Q39Y/Q99D/R42S/S66Y/T262R/V115G/W38E); test: Class II HLA binding assay; conditions: Figure 6; shortened peptides of Table 3; category by IC50; read-out: HLA binding affinity category, DRB1*1101
Experimental: (§1) Class II HLA binding assays used in these studies measure the binding affinity of a target peptide to HLA-DRB1*0101, HLA-DRB1*0301, HLA-DRB1*0401, HLA-DRB1*0701, HLA-DRB1*0901, HLA-DRB1*1101, HLA-DRB1*1301, and HLA-DRB1*1501. The HLA binding assay was originally described by Steere et al. ([21]) and adapted by EpiVax ([22], [23]). Briefly, unlabeled test peptides were incubated overnight to equilibrium with a soluble HLA-DR molecule (Benaroya Research Institute, Seattle, WA, USA) and a biotinylated, allele-specific competitor peptide of known binding affinity. The binding reaction was then neutralized with a buffered pH change, and the peptide-HLA complexes were transferred to a 96-well plate coated with a pan-HLA-DR antibody, clone L243 (BioLegend, San Diego, CA, United States), and incubated overnight. The following day, plates were resolved with the addition of europium-labeled streptavidin (Perkin-Elmer, Waltham, MA, USA). An indirect measure of binding was determined by time-resolved fluorescence. Each peptide was evaluated in triplicate over a range of seven concentrations. The percent inhibition values for each experimental peptide across this concentration range were used to calculate an IC50, the concentration at which the peptide inhibits 50% of the labeled competitor peptide.
(§2) Following the in silico analysis, epitope binding predictions by EpiMatrix were evaluated in vitro by measuring the binding affinity of each impurity peptide relative to the corresponding N- or C-terminal portion of the TPT API, in vitro. The class II HLA-DRB1 binding assay was adapted from an assay originally described by Steere et al. ([21]) that provides an indirect measurement of peptide-HLA affinity. Class II HLA binding peptides typically range in length from 12–20 amino acids; however, the core HLA binding region is nine amino acids. The class II HLA binding groove is open-ended, and the additional flanking residues on either end of the core binding motif stabilize the peptide: HLA binding interaction. Targeted binding motifs were properly centered within the shorter length peptides synthesized for these binding studies (Table 3).

HLA-DRB1*0401 = target: T1, HLA-DRB1*0401 (Homo sapiens, UniProt P01903+P01911, A100K/A169T/F76Y/I96L/K127E/L162R/M171V/N62H/P40V/Q125Y/R42H/S133A/S149N/S66Y/V115G/V209L/W38E); test: Class II HLA binding assay; conditions: Figure 6; shortened peptides of Table 3; category by IC50; read-out: HLA binding affinity category, DRB1*0401
T1 construct: incubated overnight to equilibrium with a soluble HLA-DR molecule; purchased Benaroya Research Institute, Seattle, WA, USA
Experimental: as §1, §2

HLA-DRB1*1301 = HLA-DRB1*1301 (Homo sapiens, UniProt P01903+P01911, A100E/A169T/K41T/L162R/M171V/P40S/Q125H/Q178H/Q39Y/Q99D/R42S/S66N/T262R/W38E/Y61H); test: Class II HLA binding assay; conditions: Figure 6; shortened peptides of Table 3; category by IC50; read-out: HLA binding affinity category, DRB1*1301
Experimental: as §1, §2

HLA-DRB1*0101 = target: T2, HLA-DRB1*0101 (Homo sapiens, UniProt P01903+P01911, A100R/D57E/F55L/F60I/F76Y/I96L/L162R/M171V/P40L/Q125E/R42F/V115G/Y59C); test: Class II HLA binding assay; conditions: Figure 6; shortened peptides of Table 3; category by IC50; read-out: HLA binding affinity category, DRB1*0101
T2 construct: incubated overnight to equilibrium with a soluble HLA-DR molecule; purchased Benaroya Research Institute, Seattle, WA, USA
Experimental: as §1, §2

HLA-DRB1*0701 = HLA-DRB1*0701 (Homo sapiens, UniProt P01903+P01911, A100R/A102G/A103Q/D57E/D86V/E43K/F76Y/K127E/L162R/M171V/P40G/Q125H/Q99D/R33Q/R42Y/R54Q/S133A/S66F/T210M/V115G/Y107V/Y59L/Y89S); test: Class II HLA binding assay; conditions: Figure 6; shortened peptides of Table 3; category by IC50; read-out: HLA binding affinity category, DRB1*0701
Experimental: as §1, §2

HLA-DRB1*1501 = target: T3, HLA-DRB1*1501 (Homo sapiens, UniProt P01903+P01911); test: Class II HLA binding assay; conditions: Figure 6; shortened peptides of Table 3; category by IC50; read-out: HLA binding affinity category, DRB1*1501
T3 construct: incubated overnight to equilibrium with a soluble HLA-DR molecule; purchased Benaroya Research Institute, Seattle, WA, USA
Experimental: as §1, §2

HLA-DRB1*0301 = target: T4, HLA-DRB1*0301 (Homo sapiens, UniProt P01903+P01911, A100K/A102G/A103R/A169T/F55Y/I96L/K41T/L162R/M171V/P40S/Q125H/Q178H/Q39Y/R42S/S66N/T106N/T262R/W38E/Y61H); test: Class II HLA binding assay; conditions: Figure 6; shortened peptides of Table 3; category by IC50; read-out: HLA binding affinity category, DRB1*0301
T4 construct: incubated overnight to equilibrium with a soluble HLA-DR molecule; purchased Benaroya Research Institute, Seattle, WA, USA
Experimental: as §1, §2

HLA-DRB1*0901 = HLA-DRB1*0901 (Homo sapiens, UniProt P01903+P01911, A100R/A103E/D57H/D86V/F55Y/F60I/F76Y/I96F/K127E/L162R/M171V/P40D/Q125H/Q99R/R33Q/R42F/S133A/S66N/T210M/V115G/W38K/Y107V/Y59G/Y89S); test: Class II HLA binding assay; conditions: Figure 6; shortened peptides of Table 3; category by IC50; read-out: HLA binding affinity category, DRB1*0901
Experimental: as §1, §2

[2] = tested on: eight class II Supertype Alleles (HLA-DRB1); test: Class II HLA binding assay, summary over the panel of eight alleles; parameters: species or system human
Experimental: as §1
as §2, with “Targeted binding motifs were properly centered within the shorter length peptides synthesized for these binding studies (Table 3).” left out

B cells = tested on: B cells; parameters: method as in 2 sources, one per row (each row's own in cited_ref): ref Howard et al. ([38]) ||| ref [37] = [37]; 37 Howard KE . ( 2025 ). Alternative models: from humanized mice to microphysiological systems and beyond , in: Scientific and Regulatory Considerations for Assessment of Immunogenicity Risk for Gener; conditions: cited from earlier work
[3] = human, in vivo; cited from earlier work
Source text: Teriparatide (TPT), sold under the brand name Forteo®, is a 34-amino acid peptide drug produced by recombinant DNA (rDNA) technology. Synthetic peptide versions of the drug have recently been approved for the generic drug market. TPT consists of the biologically active N-terminal 34 amino acids of human parathyroid hormone (PTH) (Figure 1) and is approved in the USA for the treatment of postmenopausal osteoporosis in patients at high risk of bone fracture. Since TPT’s sequence is identical to that of the N-terminus of PTH, the development of antibodies that cross-react with the endogenous hor ... || TPT has a history of having low immunogenicity in the clinic, with only 2.8% of treated patients developing antidrug antibodies after 12 months of treatment. Consistent with this, TPT induced IFN-γ production by responding T cells in fewer than 20% of donor cell preparations ex vivo. However, because different impurities can arise from different methods of peptide synthesis and production, it is important to understand whether any peptide-related impurities could contribute to the immunogenicity risk of generic TPT. Here, we performed an immunogenicity risk assessment for several peptide-relat ...

Sequence of HLA-DRB1*1101 (P01903 26-254 limits assumed, other chains not shown): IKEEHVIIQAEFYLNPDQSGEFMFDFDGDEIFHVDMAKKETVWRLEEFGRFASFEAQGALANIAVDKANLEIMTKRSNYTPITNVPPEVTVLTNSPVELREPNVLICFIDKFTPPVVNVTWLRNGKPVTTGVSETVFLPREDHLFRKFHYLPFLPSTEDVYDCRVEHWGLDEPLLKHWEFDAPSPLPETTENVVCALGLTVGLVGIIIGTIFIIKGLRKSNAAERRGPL

- Overall risk [1]: High
Substance: SVSEIQLMHN–GKHLNSMERVEWLRKKLQDVHNF [DES-LEU11_TERIPARATIDE, observed teriparatide impurity, deletion of Leu11]

- IC50 (HLA-DRB1*1101): 1000 to 10000 nM
- IC50 (HLA-DRB1*0401): > 100 µM
- IC50 (HLA-DRB1*1301): 100 to 1000 nM
- IC50 (HLA-DRB1*0101): > 100 µM
- IC50 (HLA-DRB1*0701): > 100 µM
- IC50 (HLA-DRB1*1501): ≥ 100 µM
- IC50 (HLA-DRB1*0301): > 100 µM
- IC50 (HLA-DRB1*0901): > 100 µM
Substance: MERVEWLRKKQDVHNF [DES-LEU28_TPT (18-33)]

- classification in the HLA binding assays ([2]; shorter peptide with the modification centered): nonbinder
- Overall risk [1]: High
Substance: SVSEIQLMHNLGKHLNSMERVEWLR(K-Ac)KLQDVHNF [LYS-AC26_TERIPARATIDE, observed teriparatide impurity, Lys26 acetylated]

- Overall risk [1]: High
Substance: SVSEIQLMHNLG–HLNSMERVEWLRKKLQDVHNF [DES-LYS13_TERIPARATIDE, observed teriparatide impurity, deletion of Lys13]

- IC50 (HLA-DRB1*1101): > 100000 nM
- IC50 (HLA-DRB1*0401): > 100 µM
- IC50 (HLA-DRB1*1301): > 100000 nM
- IC50 (HLA-DRB1*0101): > 100 µM
- IC50 (HLA-DRB1*0701): > 100 µM
- IC50 (HLA-DRB1*1501): > 100 µM
- IC50 (HLA-DRB1*0301): > 100 µM
- IC50 (HLA-DRB1*0901): > 100 µM
Substance: MERVEWLRK(Ac)KLQDVHNF [LYS-AC26_TPT (18-34)]

- Overall risk [1]: Low
Substance: SVSEIQLMHNLGKHLNSMERVEWLRKKLQDVHNF [TERIPARATIDE, teriparatide]
- immunogenicity (as measured by activation of B cells) (B cells; at multiple doses, in contrast to SCT, ref Howard et al. ([38])): lower immunogenicity
- treated patients developing antidrug antibodies (ADA) [3]: 2.8%

- Overall risk [1]: Low
Substance: SVSEIQLMHNLGKHLNSMERVEWLRKK–QDVHNF [DES-LEU28_TERIPARATIDE, observed teriparatide impurity, deletion of Leu28]

The remaining lines, values behind:

Substance: MERVEWLRKKLQDVHNF-OH [API_TPT (18-34) C-term]
- number of the eight class II Supertype Alleles bound ([2]; of eight alleles evaluated, negligible to high affinity counted as bound): three
- IC50 (HLA-DRB1*1101): 100 to 1000 nM
- IC50 (HLA-DRB1*0401): > 100 µM
- IC50 (HLA-DRB1*1301): 1000 to 10000 nM
- IC50 (HLA-DRB1*0101): > 100 µM
- IC50 (HLA-DRB1*0701): > 100 µM
- IC50 (HLA-DRB1*1501): ≥ 100 µM
- IC50 (HLA-DRB1*0301): > 100 µM
- IC50 (HLA-DRB1*0901): > 100 µM

Substance: SVSEIQLMHNL–KHLNSMERVEWLRKKLQDVHNF [DES-GLY12_TERIPARATIDE, theoretical teriparatide impurity predicted by WhIM, deletion of Gly12]
- Overall risk [1]: High

Substance: SVSEIQLMHNLGK–LNSMERVEWLRKKLQDVHNF [DES-HIS14_TERIPARATIDE, observed teriparatide impurity, deletion of His14]
- Overall risk [1]: High

Substance: SVSEIQLMHNLLGKHLNSMERVEWLRKKLQDVHNF [ENDO-LEU11_TERIPARATIDE, theoretical teriparatide impurity predicted by WhIM, duplication of Leu11]
- Overall risk [1]: High

Substance: SVSEIQLM–NLGKHLNSMERVEWLRKKLQDVHNF [DES-HIS9_TERIPARATIDE, observed teriparatide impurity, deletion of His9]
- Overall risk [1]: High

Substance: SVSEIQ–MHNLGKHLNSMERVEWLRKKLQDVHNF [DES-LEU7_TERIPARATIDE, observed teriparatide impurity, deletion of Leu7]
- binding affinity compared to the corresponding region of the API ([2]; impurity peptides alongside N-term or C-term TPT API peptide): decreased or equivalent binding affinity
- Overall risk [1]: Medium

Substance: salmon calcitonin [SCT]
- long-term memory B cells and plasma cells (B cells; SCT-treated mice compared to TPT, ref [37]): Increased numbers
